Measured values taken from US11932626B2, “2-pyrimidone analogs as potent antiviral agents against Alphaviruses” (priority 2020, dated 2024).

How the values were obtained:
[1] = tested on: VEEV; test: microbe, parasite or virus in culture; assay type: cell-based; details: Venezuelan equine encephalitis virus, NHDF; for EC90: read-out: VEEV EC90; for log reduction at 10 µM: read-out: VEEV VTR
[2] = tested on: CHIKV linked NanoLuc luciferase reporter; test: microbe, parasite or virus in culture; assay type: cell-based; details: Chikungunya virus, read-out: CHIKV EC50
[3] = tested on: CHIKV; test: CHIKV virus titer reduction (VTR) assay in NHDF cells; assay type: cell-based; details: Chikungunya virus; for log reduction at 10 µM: CHIKV titer reduction at 10 μM, normal human dermal fibroblasts (NHDF) cells; for EC90: effective concentration of 90% inhibition of virus in a VTR assay, NHDF cells
[4] = in vitro; details: human
[5] = tested on: VEEV (TC-83); test: microbe, parasite or virus in culture; assay type: cell-based; details: Venezuelan equine encephalitis virus, read-out: VEEV EC50

## O=C(COc1nc(=O)[nH]c(N2C3CCC2COC3)c1F)NC12CC3CC(CC(C3)C1)C2 [compound 34, 2-((6-(3-Oxa-8-Azabicyclo[3.2.1]Octan-8-Yl)-5-Fluoro-2-Oxo-1,2-Dihydropyrimidin-4-Yl)Oxy)-N-(Adamantan-1-Yl)Acetamide]
[1]
  EC90: 5 µM
  log reduction at 10 µM: 1.97
[2]
  EC50: 1.02 µM
[3]
  log reduction at 10 µM: 6.13
  EC90: 0.19 µM
[4]
  CC50: > 40 µM
[5]
  EC50: 22.5 µM

## O=C(COc1nc(=O)[nH]c(N2CC(F)(F)C2)c1F)NC12CC3CC(CC(C3)C1)C2 [compound 35, N-(Adamantan-1-Yl)-2-((6-(3,3-Difluoroazetidin-1-Yl)-5-Fluoro-2-Oxo-1,2-Dihydropyrimidin-4-Yl)Oxy)Acetamide]
[1]
  EC90: 1.5 µM
  log reduction at 10 µM: 3.35
[2]
  EC50: 0.7 µM
[3]
  log reduction at 10 µM: 4
  EC90: 0.051 µM
[4]
  CC50: > 40 µM
[5]
  EC50: 5.19 µM

## COc1cc(OCC(=O)NC23CC4CC(CC(C4)C2)C3)nc(=O)[nH]1 [compound 36, N-(adamantan-1-yl)-2-((6-methoxy-2-oxo-1,2-dihydropyrimidin-4-yl)oxy)acetamide]
[1]
  EC90: > 10 µM
  log reduction at 10 µM: 0.63
[2]
  EC50: 1.14 µM
[3]
  log reduction at 10 µM: 4.56
  EC90: 0.23 µM
[4]
  CC50: > 40 µM
[5]
  EC50: > 40 µM

## O=C(COc1cc(Oc2ccc(F)cc2)[nH]c(=O)n1)NC12CC3CC(CC(C3)C1)C2 [compound 37, N-(adamantan-1-yl)-2-((6-(4-fluorophenoxy)-2-oxo-1,2-dihydropyrimidin-4-yl)oxy)acetamide]
[1]
  EC90: > 10 µM
  log reduction at 10 µM: 0.8
[2]
  EC50: > 40 µM
[3]
  log reduction at 10 µM: 0
  EC90: > 10 µM
[4]
  CC50: > 40 µM
[5]
  EC50: > 40 µM

## Cc1[nH]c(=O)nc(SCC(=O)NC23CC4CC(CC(C4)C2)C3)c1C(=O)O [compound 38, 4-((2-((Adamantan-1-Yl)Amino)-2-Oxoethyl)Thio)-6-Methyl-2-Oxo-1,2-Dihydropyrimidine-5-Carboxylic Acid]
[1]
  log reduction at 10 µM: 0.23
[2]
  EC50: > 40 µM
[3]
  log reduction at 10 µM: 1.19
[4]
  CC50: > 40 µM
[5]
  EC50: > 40 µM

## CC(C)Oc1cc(OCC(=O)NC23CC4CC(CC(C4)C2)C3)nc(=O)[nH]1 [compound 45, N-(Adamantan-1-Yl)-2-((6-Isopropoxy-2-Oxo-1,2-Dihydropyrimidin-4-Yl)Oxy)Acetamide]
[1]
  EC90: 0.98 µM
  log reduction at 10 µM: 2.62
[2]
  EC50: 0.429 µM
[3]
  log reduction at 10 µM: 5.58
  EC90: 0.08 µM
[4]
  CC50: > 40 µM
[5]
  EC50: 8.95 µM

## COc1[nH]c(=O)nc(OCC(=O)NC23CC4CC(CC(C4)C2)C3)c1F [compound 46, N-(adamantan-1-yl)-2-((5-fluoro-6-methoxy-2-oxo-1,2-dihydropyrimidin-4-yl)oxy)acetamide]
[1]
  EC90: > 10 µM
  log reduction at 10 µM: 0
[2]
  EC50: > 40 µM
[3]
  log reduction at 10 µM: 0.42
  EC90: > 10 µM
[4]
  CC50: > 40 µM
[5]
  EC50: > 40 µM

## O=C(COc1cc(OC2CC(F)(F)C2)[nH]c(=O)n1)NC12CC3CC(CC(C3)C1)C2 [compound 47, N-(Adamantan-1-Yl)-2-((6-(3,3-Difluorocyclobutoxy)-2-Oxo-1,2-Dihydropyrimidin-4-Yl)Oxy)Acetamide]
[1]
  EC90: > 10 µM
  log reduction at 10 µM: 0.28
[2]
  EC50: 6.78 µM
[3]
  log reduction at 10 µM: 5.66
  EC90: 0.8 µM
[4]
  CC50: > 40 µM
[5]
  EC50: > 40 µM

## O=C(COc1cc(OC2CC2)[nH]c(=O)n1)NC12CC3CC(CC(C3)C1)C2 [compound 48, N-(Adamantan-1-Yl)-2-((6-Cyclopropoxy-2-Oxo-1,2-Dihydropyrimidin-4-Yl)Oxy)Acetamide]
[1]
  EC90: 0.65 µM
  log reduction at 10 µM: 3.28
[2]
  EC50: 0.283 µM
[3]
  log reduction at 10 µM: 5.51
  EC90: 0.06 µM
[4]
  CC50: > 40 µM
[5]
  EC50: 3.77 µM
